From publication PMC7480398 (Phytomedicine, 2020) come the findings set out here.

Format in all cases: biochemical
Series [1] deals with CYP3A4 (Homo sapiens, UniProt P08684). As to the kind of experiment: fluorescent probe substrate. The following applies: liver microsomes. (Liver microsomes are a subcellular fraction often used to study metabolism.)
In series [2] the target is T1, PTGS1 (Ovis aries, UniProt P05979).
T1 sequence (P05979 25-600): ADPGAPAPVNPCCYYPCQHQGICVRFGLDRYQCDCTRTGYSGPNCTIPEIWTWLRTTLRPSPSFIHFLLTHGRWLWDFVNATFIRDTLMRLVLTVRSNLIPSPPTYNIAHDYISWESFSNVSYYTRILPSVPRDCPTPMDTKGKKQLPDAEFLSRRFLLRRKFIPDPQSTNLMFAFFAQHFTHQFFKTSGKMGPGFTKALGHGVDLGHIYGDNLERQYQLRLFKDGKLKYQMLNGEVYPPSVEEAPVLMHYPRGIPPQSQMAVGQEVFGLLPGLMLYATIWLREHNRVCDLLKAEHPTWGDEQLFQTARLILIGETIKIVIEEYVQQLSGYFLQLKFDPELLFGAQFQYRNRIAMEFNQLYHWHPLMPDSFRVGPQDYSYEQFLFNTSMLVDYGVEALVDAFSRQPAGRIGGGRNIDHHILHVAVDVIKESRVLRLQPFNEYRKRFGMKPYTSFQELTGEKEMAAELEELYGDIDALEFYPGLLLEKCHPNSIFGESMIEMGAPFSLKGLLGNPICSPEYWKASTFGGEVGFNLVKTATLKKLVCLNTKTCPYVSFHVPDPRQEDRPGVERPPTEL
As to the kind of experiment: colorimetric enzyme activity assay.

Series [3] concerns the target T2, CYP1A1 (Homo sapiens, UniProt P04798).
T2 sequence (P04798 1-512): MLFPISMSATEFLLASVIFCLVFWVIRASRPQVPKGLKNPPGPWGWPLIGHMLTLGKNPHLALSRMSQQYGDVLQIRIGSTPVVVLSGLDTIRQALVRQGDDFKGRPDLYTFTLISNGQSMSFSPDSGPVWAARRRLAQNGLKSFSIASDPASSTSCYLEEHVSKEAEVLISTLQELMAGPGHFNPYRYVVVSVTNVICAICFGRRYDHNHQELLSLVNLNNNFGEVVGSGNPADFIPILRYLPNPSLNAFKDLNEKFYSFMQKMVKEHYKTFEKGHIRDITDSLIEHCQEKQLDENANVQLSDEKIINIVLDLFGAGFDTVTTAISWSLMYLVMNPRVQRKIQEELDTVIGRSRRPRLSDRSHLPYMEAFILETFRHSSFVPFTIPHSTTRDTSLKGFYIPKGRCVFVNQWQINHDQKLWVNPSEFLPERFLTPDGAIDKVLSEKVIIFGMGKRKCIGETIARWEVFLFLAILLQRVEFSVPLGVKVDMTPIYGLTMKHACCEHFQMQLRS

Chain of CYP3A4 (P08684 2-503): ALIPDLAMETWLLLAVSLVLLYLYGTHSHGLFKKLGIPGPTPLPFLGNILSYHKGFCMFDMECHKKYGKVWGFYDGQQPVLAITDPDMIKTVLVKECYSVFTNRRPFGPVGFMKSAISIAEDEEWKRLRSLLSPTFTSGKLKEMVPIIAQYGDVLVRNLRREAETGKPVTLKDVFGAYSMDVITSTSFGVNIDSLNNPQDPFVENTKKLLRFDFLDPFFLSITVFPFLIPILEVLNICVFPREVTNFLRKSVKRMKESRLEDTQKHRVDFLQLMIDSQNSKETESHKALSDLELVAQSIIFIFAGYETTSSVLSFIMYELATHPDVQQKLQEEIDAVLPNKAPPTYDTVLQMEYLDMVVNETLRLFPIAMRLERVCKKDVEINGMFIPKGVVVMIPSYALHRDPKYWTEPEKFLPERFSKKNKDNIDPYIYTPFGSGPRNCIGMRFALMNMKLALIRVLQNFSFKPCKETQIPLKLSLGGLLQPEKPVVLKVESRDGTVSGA

A word on the IC50: it is the concentration that inhibits the measured activity by half. Consider `CC(=O)O[C@@H](C[C@@H](C)C1=C2C[C@H](O)[C@H]3[C@@]4(C)CCC(=O)C(C)(C)[C@@H]4CC[C@]3(C)[C@@]2(C)CC1)[C@H]1OC1(C)C` [alisol B 23-acetate], for which, in series [1], it took 0.45 ± 0.03 µM to reach half-maximal inhibition (IC50).

For `O=C(O)[C@H]1O[C@@H](Oc2cc3oc(-c4ccccc4)cc(=O)c3c(O)c2O)[C@H](O)[C@@H](O)[C@@H]1O` [baicalin], the “colorimetric enzyme activity assay (590 nm)” value in series [2] was “Baicalin inhibited pure PTGS1 and AA induced platelet aggregation at the concentration as shown”.

For the compound `O=c1c(O[C@@H]2O[C@H](CO)[C@H](O)[C@H](O)[C@H]2O)c(-c2ccc(O)c(O)c2)oc2cc(O)cc(O)c12` [hyperoside], the midpoint of inhibition in series [3], the IC50, lay at 105 ± 18.9 µM.
